{"source": "paper PMC3607609", "about": "(PLoS ONE, 2013)", "key": {"[1]": {"molecular_target": "Cav2.2 expressed in rat brain (Rattus norvegicus, UniProt Q02294)", "sequence (Q02294 whole entry, looked up)": "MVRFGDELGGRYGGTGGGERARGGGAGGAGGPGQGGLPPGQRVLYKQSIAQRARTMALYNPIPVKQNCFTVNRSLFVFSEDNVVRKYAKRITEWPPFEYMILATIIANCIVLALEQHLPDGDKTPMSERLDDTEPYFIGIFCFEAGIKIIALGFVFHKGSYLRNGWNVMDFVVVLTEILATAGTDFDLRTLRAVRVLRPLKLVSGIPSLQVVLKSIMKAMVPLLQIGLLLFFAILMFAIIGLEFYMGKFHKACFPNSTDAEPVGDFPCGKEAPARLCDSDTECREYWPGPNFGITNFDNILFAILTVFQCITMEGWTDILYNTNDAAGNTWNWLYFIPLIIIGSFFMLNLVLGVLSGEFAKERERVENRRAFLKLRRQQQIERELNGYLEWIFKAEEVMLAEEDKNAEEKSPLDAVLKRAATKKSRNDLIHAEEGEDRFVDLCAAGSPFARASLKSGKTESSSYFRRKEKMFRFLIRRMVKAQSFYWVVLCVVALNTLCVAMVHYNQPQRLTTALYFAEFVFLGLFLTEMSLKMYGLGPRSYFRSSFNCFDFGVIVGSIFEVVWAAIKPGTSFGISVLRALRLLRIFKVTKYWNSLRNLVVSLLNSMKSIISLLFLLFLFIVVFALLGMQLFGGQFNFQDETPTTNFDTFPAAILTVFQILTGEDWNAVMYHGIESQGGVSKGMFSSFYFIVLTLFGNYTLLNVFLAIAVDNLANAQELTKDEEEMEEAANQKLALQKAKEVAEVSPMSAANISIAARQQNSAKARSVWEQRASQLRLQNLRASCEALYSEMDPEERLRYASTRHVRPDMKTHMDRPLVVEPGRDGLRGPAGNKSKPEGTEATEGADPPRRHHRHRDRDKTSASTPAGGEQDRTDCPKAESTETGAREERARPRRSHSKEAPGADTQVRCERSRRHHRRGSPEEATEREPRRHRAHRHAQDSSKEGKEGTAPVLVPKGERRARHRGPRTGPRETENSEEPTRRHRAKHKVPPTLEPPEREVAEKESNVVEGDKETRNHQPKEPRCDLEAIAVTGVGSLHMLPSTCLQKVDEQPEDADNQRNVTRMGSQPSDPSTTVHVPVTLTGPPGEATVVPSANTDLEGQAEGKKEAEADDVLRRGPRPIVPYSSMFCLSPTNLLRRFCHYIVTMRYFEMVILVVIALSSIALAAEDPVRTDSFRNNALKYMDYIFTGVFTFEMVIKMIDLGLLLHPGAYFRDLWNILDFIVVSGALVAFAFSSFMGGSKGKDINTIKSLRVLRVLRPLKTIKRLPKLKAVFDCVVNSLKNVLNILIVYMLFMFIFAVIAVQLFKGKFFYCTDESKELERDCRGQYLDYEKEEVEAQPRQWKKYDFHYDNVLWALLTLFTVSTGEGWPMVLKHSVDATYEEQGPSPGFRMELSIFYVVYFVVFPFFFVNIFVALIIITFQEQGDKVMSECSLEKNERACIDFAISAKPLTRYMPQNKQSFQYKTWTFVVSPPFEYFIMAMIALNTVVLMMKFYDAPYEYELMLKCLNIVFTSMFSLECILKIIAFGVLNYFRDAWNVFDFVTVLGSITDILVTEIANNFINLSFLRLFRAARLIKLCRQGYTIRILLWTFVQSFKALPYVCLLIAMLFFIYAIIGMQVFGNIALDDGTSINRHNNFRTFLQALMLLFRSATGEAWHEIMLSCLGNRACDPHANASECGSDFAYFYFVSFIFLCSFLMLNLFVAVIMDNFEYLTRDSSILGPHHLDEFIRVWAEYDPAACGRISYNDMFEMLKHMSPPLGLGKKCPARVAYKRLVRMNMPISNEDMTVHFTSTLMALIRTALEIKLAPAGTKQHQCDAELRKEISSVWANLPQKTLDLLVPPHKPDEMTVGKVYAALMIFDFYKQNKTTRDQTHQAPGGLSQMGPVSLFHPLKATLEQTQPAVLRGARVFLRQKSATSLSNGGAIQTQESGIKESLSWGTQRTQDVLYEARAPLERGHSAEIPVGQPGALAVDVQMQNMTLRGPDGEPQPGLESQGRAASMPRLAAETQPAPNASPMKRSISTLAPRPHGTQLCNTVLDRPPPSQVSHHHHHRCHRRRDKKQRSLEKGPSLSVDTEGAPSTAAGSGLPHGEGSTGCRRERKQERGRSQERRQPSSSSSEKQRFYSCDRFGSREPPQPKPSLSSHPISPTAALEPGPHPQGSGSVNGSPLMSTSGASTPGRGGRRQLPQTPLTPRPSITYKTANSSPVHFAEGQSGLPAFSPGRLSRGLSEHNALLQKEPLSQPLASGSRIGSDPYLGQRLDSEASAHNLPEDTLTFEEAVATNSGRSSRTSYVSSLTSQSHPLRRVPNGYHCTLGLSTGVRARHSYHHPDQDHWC", "experiment": "biochemical", "type": "binding, rat (male Wistar)"}, "[2]": {"molecular_target": "Cav2.2 channels endogenously expressed in SH-SY5Y cells (Homo sapiens, UniProt Q00975)", "sequence (Q00975 whole entry, looked up)": "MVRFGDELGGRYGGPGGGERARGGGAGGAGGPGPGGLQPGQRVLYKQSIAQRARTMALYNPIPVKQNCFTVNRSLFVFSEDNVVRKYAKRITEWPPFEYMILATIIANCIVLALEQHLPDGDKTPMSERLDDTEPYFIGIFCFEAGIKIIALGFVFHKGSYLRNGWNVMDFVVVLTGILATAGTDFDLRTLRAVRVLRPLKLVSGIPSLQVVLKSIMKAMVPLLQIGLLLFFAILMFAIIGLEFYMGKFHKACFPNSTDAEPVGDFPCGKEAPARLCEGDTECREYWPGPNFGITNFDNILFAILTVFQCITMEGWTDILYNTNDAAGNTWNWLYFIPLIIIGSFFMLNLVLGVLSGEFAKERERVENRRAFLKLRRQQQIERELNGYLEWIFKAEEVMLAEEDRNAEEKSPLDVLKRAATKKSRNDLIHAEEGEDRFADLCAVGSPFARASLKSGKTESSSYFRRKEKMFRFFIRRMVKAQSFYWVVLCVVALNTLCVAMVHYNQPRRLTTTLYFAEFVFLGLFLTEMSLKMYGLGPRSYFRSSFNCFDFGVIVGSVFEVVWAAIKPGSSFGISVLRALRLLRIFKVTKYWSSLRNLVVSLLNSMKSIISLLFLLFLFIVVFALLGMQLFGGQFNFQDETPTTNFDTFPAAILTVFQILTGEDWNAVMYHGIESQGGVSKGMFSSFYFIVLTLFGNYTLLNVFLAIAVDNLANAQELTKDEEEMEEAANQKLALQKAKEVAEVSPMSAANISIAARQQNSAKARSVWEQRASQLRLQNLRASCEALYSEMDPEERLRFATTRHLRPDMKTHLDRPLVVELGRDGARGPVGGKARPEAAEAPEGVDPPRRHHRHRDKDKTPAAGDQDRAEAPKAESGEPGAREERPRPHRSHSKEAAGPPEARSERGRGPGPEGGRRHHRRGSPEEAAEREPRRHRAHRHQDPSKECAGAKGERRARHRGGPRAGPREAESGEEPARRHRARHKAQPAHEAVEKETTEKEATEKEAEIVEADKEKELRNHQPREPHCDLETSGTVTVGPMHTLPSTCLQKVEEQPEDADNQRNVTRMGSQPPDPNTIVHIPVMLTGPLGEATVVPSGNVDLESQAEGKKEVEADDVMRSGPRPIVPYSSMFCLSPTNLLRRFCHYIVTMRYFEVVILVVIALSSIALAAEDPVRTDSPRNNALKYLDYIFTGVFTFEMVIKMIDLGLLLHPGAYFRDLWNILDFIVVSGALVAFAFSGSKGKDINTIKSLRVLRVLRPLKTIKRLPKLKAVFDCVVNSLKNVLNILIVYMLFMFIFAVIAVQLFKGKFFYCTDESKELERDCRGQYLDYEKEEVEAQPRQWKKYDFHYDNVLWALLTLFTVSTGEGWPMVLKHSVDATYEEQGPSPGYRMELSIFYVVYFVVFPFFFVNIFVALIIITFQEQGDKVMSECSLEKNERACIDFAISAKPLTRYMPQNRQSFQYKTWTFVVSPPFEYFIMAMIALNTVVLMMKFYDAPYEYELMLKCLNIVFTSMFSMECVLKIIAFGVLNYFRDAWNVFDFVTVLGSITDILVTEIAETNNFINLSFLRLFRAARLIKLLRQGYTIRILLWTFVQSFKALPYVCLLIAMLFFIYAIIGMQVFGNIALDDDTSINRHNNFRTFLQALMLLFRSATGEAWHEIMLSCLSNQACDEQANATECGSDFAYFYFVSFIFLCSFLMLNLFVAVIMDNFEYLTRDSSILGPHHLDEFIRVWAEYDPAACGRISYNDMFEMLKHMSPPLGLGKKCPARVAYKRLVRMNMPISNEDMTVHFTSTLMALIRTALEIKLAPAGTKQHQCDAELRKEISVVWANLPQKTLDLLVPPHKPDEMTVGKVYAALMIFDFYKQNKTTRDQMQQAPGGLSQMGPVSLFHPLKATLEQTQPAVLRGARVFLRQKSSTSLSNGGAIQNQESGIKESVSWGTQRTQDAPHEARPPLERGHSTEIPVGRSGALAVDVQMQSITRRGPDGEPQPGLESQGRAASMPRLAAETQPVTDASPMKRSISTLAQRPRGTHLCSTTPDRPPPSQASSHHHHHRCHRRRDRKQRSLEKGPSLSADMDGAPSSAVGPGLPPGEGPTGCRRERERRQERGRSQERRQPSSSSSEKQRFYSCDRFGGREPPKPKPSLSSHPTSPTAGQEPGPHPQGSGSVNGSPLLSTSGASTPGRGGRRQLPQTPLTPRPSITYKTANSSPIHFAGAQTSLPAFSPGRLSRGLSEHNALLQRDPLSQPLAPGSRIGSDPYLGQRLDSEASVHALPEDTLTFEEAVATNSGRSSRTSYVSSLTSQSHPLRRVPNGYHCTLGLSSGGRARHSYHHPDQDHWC", "experiment": "cell-based"}, "[3]": {"molecular_target": "Cav2.2 expressed in SH-SY5Y membranes (Homo sapiens, UniProt Q00975)", "sequence (Q00975 whole entry, looked up)": "as above", "experiment": "biochemical", "type": "binding"}, "[4]": {"molecular_target": "Cav2.2 expressed in SH-SY5Y whole cell (Homo sapiens, UniProt Q00975)", "sequence (Q00975 whole entry, looked up)": "as above", "experiment": "cell-based", "type": "binding"}, "α2δ": {"system": "α2δ", "design": "method as in PMID 19559597", "conditions": "cited from earlier work"}, "Cav3": {"system": "Cav3", "design": "method as in PMID 10991994, PMID 9481480", "conditions": "different systems; cited from earlier work"}, "L-type channels": {"system": "L-type channels", "design": "method as in PMID 10991994, PMID 7565636", "conditions": "cited from earlier work"}, "[5]": {"system": "resistant KCl-evoked Ca^2+ responses in SH-SY5Y cells", "experiment": "cells", "type": "cell-based, human", "conditions": "for IC50: Homo sapiens, SH-SY5Y, read-out: Ca2+ inhibition IC50, resistant responses"}, "[6]": {"molecular_target": "Cav1 channels endogenously expressed in SH-SY5Y cells (Homo sapiens, UniProt Q01668)", "experiment": "Inhibition of KCl-evoked Cav1 Ca2+ responses in presence of CVID, FLIPR-Tetra", "type": "cell-based", "conditions": "in presence of saturating CVID"}, "[7]": {"system": "Cav channels endogenously expressed in SH-SY5Y cells", "type": "cell-based, human"}, "[8]": {"conditions": "in presence of CVID and nifedipine, agatoxins and SNX 482 up to 10 µM, mibefradil 30 µM"}}, "note": "Where “and” joins values, the source holds several entries; their conditions need not be identical. Identical values can stand only once. Entries after “also recorded” stand apart in the source; their conditions may differ. Like-named read-outs stand apart in the source and are kept apart here. Positions of bridges follow the written chain, without caps; N, C: chain ends. Residues, ends and D or L forms follow the SMILES beside them."}
{"compound": "CSCC[C@@H]1NC(=O)[C@H](CC(C)C)NC(=O)[C@H](CCCCN)NC(=O)[C@H](CO)NC(=O)[C@@H]2CSSC[C@@H]3NC(=O)[C@H](CO)NC(=O)CNC(=O)[C@H](CO)NC(=O)[C@H](CSSC[C@H](N)C(=O)N[C@@H](CCCCN)C(=O)N[C@@H](CO)C(=O)N[C@@H](CCCCN)C(=O)NCC(=O)N[C@@H](C)C(=O)N[C@@H](CCCCN)C(=O)N2)NC(=O)[C@H](CSSC[C@@H](C(N)=O)NC(=O)[C@H](CCCNC(=N)N)NC(=O)CNC(=O)[C@H](C(C)C)NC(=O)[C@H]([C@@H](C)O)NC(=O)CNC(=O)[C@H](CO)NC3=O)NC(=O)[C@H](CC(=O)O)NC(=O)[C@H](Cc2ccc(O)cc2)NC1=O", "note": "[CVID] (H-CKSKGAKCSKLMYDCCSGSCSGTVGRC-NH2; disulfide 1-16, 8-20, 15-27)", "values": [{"measurement": "IC50", "setting": "[1]", "result": 0.0295, "unit": "nM"}, {"measurement": "IC50", "setting": "[2]", "result": "0.16 ± 0.025", "unit": "µM"}, {"measurement": "IC50", "setting": "[3]", "result": 0.00309, "unit": "nM"}, {"measurement": "Kd", "setting": "[4]", "result": "0.0032 ± 0.0002", "unit": "µM"}]}
{"compound": "C[C@@H](O)[C@@H]1NC(=O)[C@H](Cc2ccc(O)cc2)NC(=O)[C@@H]2C[C@@H](O)CN2C(=O)[C@H](CC(N)=O)NC(=O)[C@@H]2CSSC[C@@H]3NC(=O)[C@H](CO)NC(=O)[C@H](CO)NC(=O)CNC(=O)[C@@H]4C[C@@H](O)CN4C(=O)[C@H](CO)NC(=O)[C@H](CCCCN)NC(=O)[C@@H](N)CSSC[C@H](NC(=O)[C@H](CSSC[C@@H](C(=O)N[C@@H](Cc4ccc(O)cc4)C(N)=O)NC(=O)[C@H](CCCN=C(N)N)NC(=O)[C@H](CCCCN)NC1=O)NC(=O)[C@H](CC(N)=O)NC(=O)[C@H](Cc1ccc(O)cc1)NC(=O)[C@H](CO)NC(=O)[C@H]([C@@H](C)O)NC(=O)[C@@H]1C[C@@H](O)CN1C(=O)[C@H](CO)NC3=O)C(=O)N[C@@H](CCCN=C(N)N)C(=O)N[C@@H](CO)C(=O)N2", "note": "[GVIA]", "values": [{"measurement": "IC50", "setting": "[1]", "result": 0.0372, "unit": "nM"}, {"measurement": "IC50", "setting": "[2]", "result": "0.15 ± 0.09", "unit": "µM"}, {"measurement": "IC50", "setting": "[3]", "result": 0.0282, "unit": "nM"}, {"measurement": "Kd", "setting": "[4]", "result": "0.00027 ± 8.4e-05", "unit": "µM"}]}
{"compound": "NCC1(CC(=O)O)CCCCC1", "note": "[gabapentin]", "values": [{"measurement": "Effect of α2δ binding on Cav2.2 trafficking and pain (in words)", "setting": "α2δ", "result": "reducing Cav2.2 trafficking and the symptoms of pain"}]}
{"compound": "COCC(=O)O[C@]1(CCN(C)CCCc2nc3ccccc3[nH]2)CCc2cc(F)ccc2[C@@H]1C(C)C", "note": "[mibefradil]", "values": [{"measurement": "Inhibition of Cav3 responses (in words)", "setting": "Cav3", "result": "weak affinity"}, {"measurement": "Inhibition of L-type channels (in words)", "setting": "L-type channels", "result": "also inhibit L-type channels"}, {"measurement": "IC50", "setting": "[5]", "result": "3 ± 0.031", "unit": "µM"}, {"measurement": "Effect on resistant KCl-evoked Ca2+ responses (in words)", "setting": "[5]; [8]", "result": "fully inhibited these remaining responses; also recorded: completely abolished"}]}
{"compound": "COC(=O)C1=C(C)NC(C)=C(C(=O)OC)C1c1ccccc1[N+](=O)[O-]", "note": "[nifedipine]", "values": [{"measurement": "Block of L-type KCl responses (in words)", "setting": "[6]", "result": "concentration-dependently blocked KCl responses"}]}
{"compound": "O=c1[nH]c2ccccc2n1C1CCN(CCCC(c2ccc(F)cc2)c2ccc(F)cc2)CC1", "note": "[pimozide]", "values": [{"measurement": "Inhibition of L-type channels (in words)", "setting": "L-type channels", "result": "also inhibit L-type channels"}, {"measurement": "IC50", "setting": "[5]", "result": "1.3 ± 0.097", "unit": "µM"}, {"measurement": "Effect on resistant KCl-evoked Ca2+ responses (in words)", "setting": "[5]; [8]", "result": "fully inhibited the remaining responses; also recorded: completely abolished"}]}
{"compound": "KCl", "values": [{"measurement": "Hill slope", "setting": "[7]", "result": "2.5 and 2.9 and 3.5"}, {"measurement": "KCl-evoked Ca2+ response (in words)", "setting": "[7]", "result": "evoked a large transient response; also recorded: elicits maximal Cav1 and Cav2.2 responses"}, {"measurement": "pEC50 for KCl-mediated stimulation", "setting": "[7]", "result": "1.69±0.12"}, {"measurement": "EC50", "setting": "[7]; read-out: Ca2+ stimulation EC50", "result": "17300 ± 3410", "unit": "µM"}]}
{"compound": "SNX 482", "values": [{"measurement": "Ca2+ inhibition IC50, resistant responses", "setting": "[5]", "result": "NDR"}, {"measurement": "Effect on resistant KCl-evoked Ca2+ responses (in words)", "setting": "[5]", "result": "no significant inhibitory effect; also recorded: not blocked"}]}
{"compound": "ω-agatoxin", "values": [{"measurement": "Effect on resistant KCl-evoked Ca2+ responses (in words)", "setting": "[5]", "result": "not blocked"}]}
{"compound": "ω-agatoxin IVA", "values": [{"measurement": "Effect on resistant KCl-evoked Ca2+ responses (in words)", "setting": "[5]", "result": "did not significantly affect KCl-evoked Ca^2+ responses"}]}
